Data on 19 compounds can be found in patent publication US5750531A, “Pyrimidine derivatives and processes for the preparation thereof” (Yuhan Corporation, priority 1994, dated 1998).

Where a name gives a salt, the structure may show the parent alone.

Assay [1] concerns the target proton pump(H^+ /K^+ ATPase). Put plainly: Inhibition of proton pump(H^+ /K^+ ATPase) activity. The assay is classed as biochemical. The conditions noted are these: pH 6.0, 37° C., 30 minutes preincubation and 30 minutes reaction; read-out: IC50 Test compound. As for the experimental part: Test 1: Inhibition of proton pump(H^+ /K^+ ATPase) activity
A proton pump enzyme source was prepared by the same method as in Experiment 1-1 of WO 94/14795. Further, the inhibitory effect of proton pump activity was measured by the same method as in Experiment 1-2 of WO 94/14795.
Namely, the proton pump activity stimulated by Mg^++ was used as a negative comparative group, and the activity stimulated by Mg^++ and K^+ was used as a positive comparative group. The comparative compound was omeprazole.
Test tubes were divided into 4 groups: Group 1 as negative comparative group(n=3), Group 2 as positive comparative group(n=3), Group 3(n=5×2) to be administered with the compound of the present invention and Group 4(n=5×2) to be administered with the comparative compound.
The inhibitory effects of Groups 3 and 4 on proton pump activity were measured by employing the compound prepared in Example and omeperazole, respectively, each of which was dissolved in dimethylsulfoxide at 5 different concentrations.
To each of Groups 1, 2, 3 and 4 were added 100 μl of magnesium chloride(40 mM) dissolved in 40 mM Tris-HCl buffer(pH 6.0) and 100μ of the enzyme source. Then, 50μ of potassium chloride(50 mM) and 50 μl of ammonium chloride(6 mM) dissolved in 40 mM Tris-HCl buffer(pH 6.0) were added to all groups except for Group 1.
10 μl of dimethylsulfoxide was added to each of Groups 1 and 2; and to Group 3 was added 10 μl of the solution in which the compound prepared in Example was dissolved in dimethylsulfoxide at 5 different concentrations(n=5×2). To Group 4, 10 μl of the solution prepared by dissolving omeprazole in dimethylsulfoxide at 5 different concentrations(37.6, 21.4, 12.2, 7.0 and 4.0 μM) was added(n=5×2). 40 mM Tris-HCl buffer(pH=6.0) was added thereto so as to make the total volume 400 μl.
Thereafter, the test tubes of each Group were placed at 37° C. for 30 minutes for the preincubation. 100 μl of ATP solution (6.6 mM) was added until the reaction volume became 500 μl. After the reaction was carried out at 37° C. for 30 minutes, 25% cold trichloroacetic acid was added to terminate the enzyme reaction. The released inorganic phosphate was measured by an automatic analyzer(Express 550, Corning).
The difference between Group 1 and Group 2 represents the proton pump activity activated by K^+ only. The inhibition percentages of Groups 3 and 4 were calculated from Litchfield-wilcoxon equation[see, e.g., J. pharmacol. Exp. Ther., 96, 99(1949)]. The concentrations of the test compounds which inhibit 50% of the proton pump activity are represented as IC50 in Table 1.

Assay [2] relates to gastric secretion. In words: Inhibition of gastric secretion (pylorus ligation, Shay method). The assay is classed as in vivo, Male Sprague-Dawley rats. To be noted: 20 mg/kg intraduodenally, 5 hours; for Rel. Conc.: acid concentration relative to omeprazole; for Relative Acid Output: acid output relative to omeprazole; for Rel. Vol.: gastric juice volume relative to omeprazole. As for the experimental part: Inhibition of gastric secretion […] Under ether anesthesia, the abdomen was incised, and the pylorus was ligated. […] After closing the abdominal cavity, the rats were placed for 5 hours and then killed by cervical dislocation. The stomach was extracted to obtain gastric juice. The gastric juice was centrifuged at 1,000 g to remove precipitates. The amount and acidity of the gastric juice were measured. Relative volumes, relative acid concentrations and relative acid outputs of the test compounds were calculated from equations(I), (II) and (III) and the results are shown in Table 2. […] Group 3) (II) […] (III)

For the compound `CCCc1cc(N2CCc3ccccc3C2C)nc(Nc2ccc(F)cc2)n1.Cl` (stereo not shown) [Example 10, 4-(1-methyl-1,2,3,4-tetrahydroisoquinolin-2-yl)-6-propyl-2-(4-fluorophenylamino)pyrimidine hydrochloride], in assay [1], the IC50 was 10600 nM. For the same compound, in assay [2], the Rel. Conc. was 0.47, the “Relative Acid Output” value was 0.55 and the Rel. Vol. came out at 0.58.

For `Cc1cc(F)ccc1Nc1nc(C)c(C)c(N2CCc3ccccc3C2C)n1.Cl` (stereo not shown) [Example 12, 5,6-dimethyl-2-(2-methyl-4-fluorophenylamino)-4-(1-methyl-1,2,3,4-tetrahydroisoquinolin-2-yl)pyrimidine hydrochloride], the IC50 in assay [1] came to 600 nM. Further, in assay [2], the Rel. Conc. stood at 0.29, the “Relative Acid Output” value is 0.75 and the Rel. Vol. came to 1.64.

In the case of `Cc1cc(F)ccc1Nc1nc(C)c(C)c(N2CCc3ccccc3[C@H]2C)n1.Cl` [Example 13, (R)-5,6-Dimethyl-2-(2-methyl-4-fluorophenylamino)-4-(1-methyl-1,2,3,4-tetrahydroisoquinolin-2-yl)pyrimidine hydrochloride], the IC50 in assay [1] was determined as 500 nM. Also, in assay [2], the Rel. Conc. was determined as 0.46, the “Relative Acid Output” value was found to be 0.81 and the Rel. Vol. was 1.72.

Turning to `Cc1cc(F)ccc1Nc1nc(C)c(C)c(N2CCc3ccccc3[C@@H]2C)n1.Cl` [Example 14, (S)-5,6-dimethyl-2-(2-methyl-4-fluorophenylamino)-4-(1-methyl-1,2,3,4-tetrahydroisoquinolin-2-yl)pyrimidine hydrochloride], in assay [1], the IC50 amounted to 700 nM. In assay [2], the Rel. Conc. came to 0.3, the “Relative Acid Output” value turned out to be 0.72 and the Rel. Vol. was found to be 0.53.

As to `Cc1nc(Nc2ccc(F)cc2)nc(N2CCc3ccccc3C2C)c1C.Cl` (stereo not shown) [Example 15, 5,6-dimethyl-2-(4-fluorophenylamino)-4-(1-methyl-1,2,3,4-tetrahydroisoquinolin-2-yl)pyrimidine hydrochloride], the IC50 in assay [1] is 1600 nM. Also, in assay [2], the Rel. Conc. came out at 1.06, the “Relative Acid Output” value was found to be 0.99 and the Rel. Vol. was 0.8.

As for `Cc1nc(Nc2ccc(F)cc2)nc(N2CCc3ccccc3[C@H]2C)c1C.Cl` [Example 16, (R)-5,6-dimethyl-2-(4-fluorophenylamino)-4-(1-methyl-1,2,3,4-tetrahydroisoquinolin-2-yl)pyrimidine hydrochloride], the IC50 in assay [1] was determined as 1500 nM. Further, in assay [2], the Rel. Conc. stood at 1.24, the “Relative Acid Output” value is recorded as 1.13 and the Rel. Vol. worked out at 0.96.

Regarding `Cc1nc(Nc2ccc(F)cc2)nc(N2CCc3ccccc3[C@@H]2C)c1C.Cl` [Example 17, (S)-5,6-dimethyl-2-(4-fluorophenylamino)-4-(1-methyl-1,2,3,4-tetrahydroisoquinolin-2-yl)pyrimidine hydrochloride], the IC50 in assay [1] is 1800 nM. In assay [2], the Rel. Conc. came to 0.97, the “Relative Acid Output” value is on record as 0.89 and the Rel. Vol. worked out at 0.82.

Consider `Cc1nc(N(C)c2ccccc2)nc(N2CCc3ccccc3C2C)c1C.Cl` (stereo not shown) [Example 18, 5,6-dimethyl-2-(N-methylphenylamino)-4-(1-methyl-1,2,3,4-tetrahydroisoquinolin-2-yl)pyrimidine hydrochloride], for which the IC50 in assay [1] turned out to be 4200 nM. In addition, in assay [2], the Rel. Conc. is 1.82, the “Relative Acid Output” value came out at 1.39 and the Rel. Vol. was 1.72.

As to `Cc1nc(N(C)c2ccccc2)nc(N2CCc3ccccc3[C@H]2C)c1C.Cl` [Example 19, (R)-5,6-Dimethyl-2-(N-methylphenylamino)-4-(1-methyl-1,2,3,4-tetrahydroisoquinolin-2-yl)pyrimidine hydrochloride], the half-maximal inhibitory concentration (IC50) in assay [1] is 3900 nM. In assay [2], the Rel. Conc. came to 1.86, the “Relative Acid Output” value is recorded as 1.43 and the Rel. Vol. is 1.8.

For the compound `Cc1nc(N(C)c2ccccc2)nc(N2CCc3ccccc3[C@@H]2C)c1C.Cl` [Example 20, (S)-5,6-dimethyl-2-(N-methylphenylamino)-4-(1-methyl-1,2,3,4-tetrahydroisoquinolin-2-yl)pyrimidine hydrochloride], the IC50 in assay [1] is 4400 nM. For the same compound, in assay [2], the Rel. Conc. was 1.75, the “Relative Acid Output” value was 1.28 and the Rel. Vol. came out at 1.66.

In the case of `Cc1nc(Nc2ccccc2)nc(N2CCc3ccccc3C2C)c1C.Cl` (stereo not shown) [Example 21, 5,6-dimethyl-2-(phenylamino)-4-(1-methyl-1,2,3,4-tetrahydroisoquinolin-2-yl)pyrimidine hydrochloride], in assay [1], the IC50 was 1500 nM. Also, in assay [2], the Rel. Conc. was found to be 0.88, the “Relative Acid Output” value was found to be 0.97 and the Rel. Vol. was found to be 1.06.

As to `Cc1nc(Nc2ccccc2)nc(N2CCc3ccccc3[C@H]2C)c1C` [Example 22, (R)-5,6-Dimethyl-2-(4-phenylamino)-4-(1-methyl-1,2,3,4-tetrahydroisoquinolin-2-yl)pyrimidine hydrochloride], in assay [1], the 50% inhibitory concentration (IC50) stood at 1400 nM. Moreover, in assay [2], the Rel. Conc. was 0.8, the “Relative Acid Output” value is on record as 0.90 and the Rel. Vol. was found to be 0.99.

On to `Cc1nc(Nc2ccccc2)nc(N2CCc3ccccc3[C@@H]2C)c1C` [Example 23, hydrochloride], for which, in assay [1], the 50% inhibitory concentration (IC50) worked out at 2000 nM. Besides, in assay [2], the Rel. Conc. worked out at 0.78, the “Relative Acid Output” value came out at 0.88 and the Rel. Vol. stood at 0.92.

Consider `Cc1ccccc1Nc1nc(C)c(C)c(N2CCc3ccccc3C2C)n1.Cl` (stereo not shown) [Example 24, 5,6-Dimethyl-2-(2-methylphenylamino)-4-(1-methyl-1,2,3,4-tetrahydroisoquinolin-2-yl)pyrimidine hydrochloride], for which, in assay [1], the IC50 stood at 600 nM. Besides, in assay [2], the Rel. Conc. was found to be 1.03, the “Relative Acid Output” value worked out at 1.01 and the Rel. Vol. is 1.

Consider `Cc1ccc(Nc2nc(C)c(C)c(N3CCc4ccccc4C3C)n2)cc1.Cl` (stereo not shown) [Example 25, 5,6-dimethyl-2-(4-methylphenylamino)-4-(1-methyl-1,2,3,4-tetrahydroisoquinolin-2-yl)pyrimidine hydrochloride], for which the IC50 in assay [1] is 1400 nM. Further, in assay [2], the Rel. Conc. was found to be 0.8, the “Relative Acid Output” value stood at 0.92 and the Rel. Vol. came to 1.06.

Regarding `CCc1nc(Nc2ccc(F)cc2C)nc(N2CCc3ccccc3C2C)c1C.Cl` (stereo not shown) [Example 26, 5-methyl-6-ethyl-2-(2-methyl-4-fluorophenylamino)-4-(1-methyl-1,2,3,4-tetrahydroisoquinolin-2-yl)pyrimidine hydrochloride], the IC50 in assay [1] was found to be 800 nM. Besides, in assay [2], the Rel. Conc. stood at 0.53, the “Relative Acid Output” value is on record as 0.73 and the Rel. Vol. came out at 0.6.

In the case of `CCc1nc(Nc2ccc(F)cc2)nc(N2CCc3ccccc3C2C)c1C.Cl` (stereo not shown) [Example 27, 5-methyl-6-ethyl-2-(4-fluorophenylamino)-4-(1-methyl-1,2,3,4-tetrahydroisoquinolin-2-yl)pyrimidine hydrochloride], in assay [1], the IC50 was 2100 nM. Besides, in assay [2], the Rel. Conc. came out at 0.61, the “Relative Acid Output” value stood at 0.81 and the Rel. Vol. amounted to 0.7.

Turning to `CCc1nc(N(C)c2ccccc2)nc(N2CCc3ccccc3C2C)c1C.Cl` (stereo not shown) [Example 28, 5-methyl-6-ethyl-2-(N-methylphenylamino)-4-(1-methyl-1,2,3,4-tetrahydroisoquinolin-2-yl)pyrimidine hydrochloride], the IC50 in assay [1] is above 15000 nM. For the same compound, in assay [2], the Rel. Conc. is 0.44, the “Relative Acid Output” value was determined as 0.78 and the Rel. Vol. is 0.71.

`Cc1cc(F)ccc1Nc1nc2c(c(N3CCc4ccccc4C3C)n1)CCC2` (stereo not shown) [Example 29, hydrochloride]: the IC50 in assay [1] stood at 400 nM. For the same compound, in assay [2], the Rel. Conc. was found to be 0.31, the “Relative Acid Output” value was 0.6 and the Rel. Vol. amounted to 0.56.
